Drawing on PubChem BioAssay (NCI), this text covers GI50 and TGI for six compounds.

“And” between values parts separate entries of the source, which are not always exact repeats. Equal entries are not always repeated.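 Each compound was tested at five concentrations against cells in 96-well plates for 48 hours. GI50 marks 50% less growth. The concentration for full growth arrest is given as TGI.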 Where a SMILES comes first, the peptide text is derived from it. The star is where a group is joined. Trt = c1ccc(C(c2ccccc2)(c2ccccc2)*)cc1; Cbz = O=C(OCc1ccccc1)*

Test systems include NCI-H522 lung; SW-620 colon; HCC-2998 colon; K-562 leukemia; OVCAR-4 ovarian; MCF7 breast; LOX IMVI melanoma; A498 renal; MDA-MB-435; UO-31 renal.
What all share (experiment): inhibition of tumour cell growth, NCI panel, 48 h

For the compound `O=C1/C(=C\c2ccccc2)C2OCC=C3CN4CCC56c7ccccc7N1C5C2C3CC46` (stereo not given), the GI50 in the assay on NCI-H522 lung was 8.01 µM; in the assay with SW-620 colon, greater than 100 µM; in the assay on HCC-2998 colon it was 4.93 µM; with K-562 leukemia it was 3.33 µM; in the assay on OVCAR-4 ovarian it was greater than 100 µM; with MCF7 breast, 5.2 µM. In addition, the GI50 is 4.9 µM in the assay on LOX IMVI melanoma, 3.56 µM with A498 renal, 3.59 µM in the assay with MDA-MB-435 and 4.04 µM in the assay on UO-31 renal. Also, the TGI with NCI-H522 lung, in the assay on SW-620 colon, with HCC-2998 colon, in the assay with K-562 leukemia, in the assay with OVCAR-4 ovarian and in the assay with MCF7 breast was greater than 100 µM in each case. The TGI in the assay with LOX IMVI melanoma is 49.8 µM; in the assay with A498 renal, 48 µM; in the assay with MDA-MB-435, greater than 100 µM; in the assay on UO-31 renal, greater than 100 µM.

Regarding `Cn1cc(-c2nc(N[C@@H]3CCCC[C@@H]3N)c(F)c3c2C(=O)NC3)cn1`, the GI50 with NCI-H522 lung was 12.8 µM and 13.1 µM; in the assay with SW-620 colon, 4.26 µM and 5 µM; in the assay on HCC-2998 colon, 26.6 µM and 28.2 µM; with K-562 leukemia, 6.83 µM and 6.77 µM; with OVCAR-4 ovarian, 15.4 µM and 19.6 µM; with MCF7 breast, 5.81 µM and 6.21 µM. Further, the GI50 with LOX IMVI melanoma is 2.95 µM and 3.81 µM; with A498 renal it was 1.72 µM and 2.45 µM; in the assay with MDA-MB-435, 5.64 µM and 7.4 µM; with UO-31 renal, 5.74 µM and 7.49 µM. Also, the TGI in the assay with NCI-H522 lung was 66.5 µM and > 91.1 µM; in the assay on SW-620 colon, greater than 100 µM; with HCC-2998 colon it was greater than 100 µM; in the assay with K-562 leukemia it was greater than 100 µM; in the assay with OVCAR-4 ovarian, greater than 100 µM; in the assay on MCF7 breast, greater than 100 µM. Further, the TGI in the assay on LOX IMVI melanoma was 14.1 µM and 16.2 µM; with A498 renal, 8.43 µM and 11.3 µM; with MDA-MB-435, greater than 100 µM; in the assay with UO-31 renal, 19.7 µM and 21.1 µM.

Take `COC(=O)C(CSC(c1ccccc1)(c1ccccc1)c1ccccc1)NC(=O)C(CC(N)=O)NC(=O)OCc1ccccc1` (stereo not drawn) (Cbz-Asn-Cys(Trt)-OMe; configuration not given here): the GI50 in the assay with NCI-H522 lung is 3.91 µM; in the assay with SW-620 colon, 7.34 µM; in the assay with HCC-2998 colon, 2.03 µM; in the assay with K-562 leukemia, 3.16 µM; with OVCAR-4 ovarian it was 7.64 µM; in the assay on MCF7 breast it was 4.54 µM. Besides, the GI50 with LOX IMVI melanoma is 1.83 µM; in the assay on A498 renal it was 3.67 µM; in the assay with MDA-MB-435 it was 2.13 µM; in the assay on UO-31 renal, 8.88 µM. Further, the TGI came to 18.7 µM with NCI-H522 lung; 23.7 µM with SW-620 colon; 4.82 µM with HCC-2998 colon; 11.4 µM with K-562 leukemia; 84.8 µM in the assay with OVCAR-4 ovarian; 27.4 µM in the assay on MCF7 breast. Besides, the TGI with LOX IMVI melanoma amounted to 3.51 µM; in the assay with A498 renal, 13.8 µM; in the assay on MDA-MB-435, 5.2 µM; in the assay on UO-31 renal it was 21.2 µM.

As to `O=C(/C=C/c1ccco1)c1ccc(Nc2nc(Nc3ccc(F)cc3)nc(Nc3ccc(F)cc3)n2)cc1`, the GI50 with NCI-H522 lung was 21.4 µM; in the assay with SW-620 colon it was 19 µM; in the assay with HCC-2998 colon, 36 µM; in the assay on K-562 leukemia, 10.8 µM; in the assay on OVCAR-4 ovarian, 8.99 µM; in the assay with MCF7 breast it was 3.74 µM. For the same compound, the GI50 in the assay on LOX IMVI melanoma is 17.6 µM; in the assay on A498 renal it was 7.28 µM; in the assay with MDA-MB-435, 16.6 µM; with UO-31 renal, 14.7 µM. Also, the TGI in the assay with NCI-H522 lung is 74.6 µM; with SW-620 colon, greater than 100 µM; in the assay with HCC-2998 colon, greater than 100 µM; in the assay on K-562 leukemia, 46 µM; in the assay with OVCAR-4 ovarian, 36.2 µM; in the assay on MCF7 breast, 25.9 µM. Also, the TGI in the assay on LOX IMVI melanoma is 45.3 µM; with A498 renal it was greater than 100 µM; in the assay on MDA-MB-435, 74.4 µM; in the assay on UO-31 renal, 37.2 µM.

Regarding `Cc1ccc(S(=O)(=O)NC(CO)C(=O)O)cc1` (stereo not given), the TGI in the assay with NCI-H522 lung, in the assay on SW-620 colon, in the assay with HCC-2998 colon, with K-562 leukemia, in the assay with OVCAR-4 ovarian and in the assay with MCF7 breast was greater than 100 µM throughout. In addition, the TGI in the assay on LOX IMVI melanoma, with A498 renal, in the assay with MDA-MB-435 and with UO-31 renal was greater than 100 µM throughout.

As to `CC(N1CCOCC1)C(O)(c1ccccc1)c1ccccn1` (stereo not given), the TGI in the assay with NCI-H522 lung was greater than 100 µM; with SW-620 colon it was greater than 100 µM; with HCC-2998 colon, 38.9 µM; in the assay on K-562 leukemia it was greater than 100 µM; in the assay on OVCAR-4 ovarian, greater than 100 µM; in the assay with MCF7 breast, greater than 100 µM. Also, the TGI with LOX IMVI melanoma, in the assay on A498 renal, in the assay on MDA-MB-435 and with UO-31 renal was greater than 100 µM in each case.
